Drawing on PubChem BioAssay (NCI), this text covers TGI for 3 compounds.

Structures are written as SMILES.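 Compound exposure: 48 hours, 5 concentrations, 96-well plates. TGI denotes the concentration required for complete inhibition of growth.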

Some test systems named below: PC-3 prostate; OVCAR-5 ovarian; MCF7 breast; NCI-H460 lung; A549 NSCLC; UACC-257 melanoma; A498 renal; NCI-H23 lung; NCI-H522 lung; SN12C renal.
Holding throughout (test): DTP human tumour cell line panel, 48 h

Usually TGI stands for the concentration at which net growth stops. The low end stands for greater sensitivity of the cells, the high end for lower sensitivity of the cells. As to `CN1C2CCC1C(C(O)c1ccccc1[N+](=O)[O-])C(=O)C2` (stereo not given), the TGI in the assay on PC-3 prostate, in the assay on OVCAR-5 ovarian, with MCF7 breast, with NCI-H460 lung, with A549 NSCLC and with UACC-257 melanoma was above 100 µM each time. For the same compound, the total growth inhibition concentration (TGI) in the assay with A498 renal, in the assay with NCI-H23 lung, with NCI-H522 lung and in the assay on SN12C renal was above 100 µM in each case.

For `OCCOCn1cc(Cn2ncc3c(SCc4ccccc4)ncnc32)nn1`, the TGI in the assay with PC-3 prostate, in the assay on OVCAR-5 ovarian, in the assay with MCF7 breast, with NCI-H460 lung, in the assay on A549 NSCLC and in the assay with UACC-257 melanoma was above 100 µM throughout. For the same compound, the TGI with A498 renal was above 100 µM; with NCI-H23 lung, above 100 µM; in the assay on NCI-H522 lung, 99.2 µM; in the assay on SN12C renal, above 100 µM.

As for `COc1ccc(/C=C(\C#N)c2nc(N)nc(N3N=C(C)CC3(C)C)n2)c(O)c1`, the TGI with PC-3 prostate was above 100 µM; in the assay on OVCAR-5 ovarian, 34.2 µM; in the assay on MCF7 breast, 45.5 µM; in the assay on NCI-H460 lung it was 38.2 µM; with A549 NSCLC, 44.5 µM; with UACC-257 melanoma, 59.1 µM. The total growth inhibition concentration (TGI) with A498 renal was 69.7 µM; with NCI-H23 lung, 42.3 µM; with NCI-H522 lung, 38.9 µM; with SN12C renal it was above 100 µM.
